Results on two molecules are retold here after US20260275368A1, “COUMARIN SYNTHESIS AND USES THEREOF” (BASF SE, priority 2022, published 2026).

The subject of one series is soybean plants. Nature of the series: Rating for plant health of T1 soybean plants. The class given is in vivo. As for the experimental part: 12 T1 soybean plants per event and respective controls are potted and grown for 3-4 weeks in the phytochamber (16 h day-und 8 h-night-Rhythm at a temperature of 16° and 22° C. und a humidity of 75%) till the first 2 trifoliate leaves were fully expanded. A general rating of plant health is performed before (and partially after) the infection experiment. Only those plants are selected for inoculation that show, in general, a healthy phenotype. Healthy phenotype means normal growth habit, green, fully expanded green leaves, having no or only minor lesions, no obvious yellowing, leaf drop or other stress-associated phenotypes.

The test system of another series is Phakopsora pachyrhizi. Nature of the series: Pathogen assay for soybean: susceptibility to soybean rust (diseased leaf area). It is filed as in vivo, Phakopsora pachyrhizi on soybean. As for the experimental part: 12 T1 soybean plants per event and respective controls are potted and grown for 3-4 weeks in the phytochamber (16 h day-und 8 h-night-Rhythm at a temperature of 16° and 22° C. und a humidity of 75%) till the first 2 trifoliate leaves were fully expanded.
The plants are inoculated with spores of P. pachyrhizi. In order to obtain appropriate spore material for the inoculation, soybean leaves, which are infected with rust 15-20 days ago, are taken 2-3 days before the inoculation and transferred to agar plates (1% agar in H2O). The leaves are placed with their upper side onto the agar, which allowed the fungus to grow through the tissue and to produce very young spores. For the inoculation solution, the spores are knocked off the leaves and are added to a Tween-H2O solution. The counting of spores is performed under a light microscope by means of a Thoma counting chamber. […]
The progression of the soybean rust disease is scored in percent by the estimation of the diseased area (area which was covered by sporulating uredinia) on the backside (abaxial side) of the leaf. […]
At all 11-12 T1 soybean plants per event and 5 independent events per construct were inoculated with spores of Phakopsora pachyrhizi. The macroscopic disease symptoms of soybean against P. pachyrhizi of the inoculated soybean plants were scored 14 days after inoculation. […]

The mark [1] stands for this setting: transgenic soybean accumulating the coumarin, compared with WT.

Structures are written as SMILES.

Consider `COc1c(O)c(O)c2oc(=O)ccc2c1O` [Sideretin, sideretin], for which, in the series with soybean plants (in vivo), the Germination rate result is “like WT”, the first trifoliate leaf entry is “like WT”, the growth phenotype entry is listed as “like WT” and the older leaves entry is given as “Unclear”. The “reduction of the diseased leaf area in comparison to non-transgenic control plants” value with Phakopsora pachyrhizi (59 T1 soybean plants (5 events) accumulating sideretin by expressing S8H+CYP82C4, inoculated with P. pachyrhizi spores, scored 14 days after inoculation, p<0.01) came out at 41%. For the same molecule, the “increase of soybean rust resistance” value with Phakopsora pachyrhizi (accumulation of sideretin by expression of S8H and CYP82C4 (and F6H1 and CoSy) in T1 soybean, vs 18 wild type controls, 14 days after inoculation, p=0,009) turned out to be 41%.
Consider `COc1cc2ccc(=O)oc2cc1O` [Scopoletin, scopoletin, reference compound], for which, in the series on soybean plants (setting [1]), the Germination rate result is “Slightly”, the first trifoliate leaf entry was “some”, the growth phenotype result is given as “Smaller” and the older leaves result was “Yellowing of”.
